The IC50 is the concentration at which inhibition is half-maximal.

The text below walks through data of US10450347B2, “Immunomodulators” (BRISTOL-MYERS SQUIBB COMPANY, priority 2015, dated 2019).

SMILES strings stand for the structures. Starred links: 1 amine or outer side, 2 acyl side, 3 side chain; linkers in the order of their positions; H or OH if unused. Positions of bridges follow the written chain, without caps; N, C: chain ends. Non-standard residues stand in square brackets, D forms with d. Residues, ends and D or L forms follow the SMILES beside them. Tyrψ(CN4)Ala = C[C@@H](C(=O)[*:2])n1nnnc1[C@H](Cc1ccc(O)cc1)N[*:1]; X2 = O=C(Cn1nnnc1C1(N[*:1])CCCCC1)[*:2]; Bta = N[C@@H](Cc1csc2ccccc12)C(=O)O; Hyp = O=C(O)[C@@H]1C[C@@H](O)CN1; NMeF = CN[C@@H](Cc1ccccc1)C(=O)O; NMeNle = CCCC[C@H](NC)C(=O)O; Sar = CNCC(=O)O

For the first data set, the target named is T1, PD-1-Ig/PD-L1-His (Homo sapiens, UniProt Q9NZQ7).
T1 construct: [hPD-L1(19-239)-tobacco vein mottling virus protease cleavage site (TVMV)-His]; made in house; host or cells: HEK293T cells
T1 sequence (Q9NZQ7 with tags, fused parts or gaps): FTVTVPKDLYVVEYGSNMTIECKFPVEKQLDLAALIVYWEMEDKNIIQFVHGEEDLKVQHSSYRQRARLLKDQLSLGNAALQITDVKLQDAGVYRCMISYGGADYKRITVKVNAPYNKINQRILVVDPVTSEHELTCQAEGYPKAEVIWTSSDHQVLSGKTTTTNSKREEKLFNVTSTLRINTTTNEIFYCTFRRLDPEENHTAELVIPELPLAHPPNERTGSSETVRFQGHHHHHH
Kind of data set: PD-1/PD-L1 Homogenous Time-Resolved Fluorescence (HTRF) binding assay. Particulars: inhibition of PD-1-Ig binding to PD-L1-TVMV-His; numeric values. The text has this: The ability of the macrocyclic peptides of the present disclosure to bind to PD-L1 was investigated using a PD-1/PD-L1 Homogenous Time-Resolved Fluorescence (HTRF) binding assay.
Homogenous Time-Resolved Fluorescence (HTRF) Assays of Binding of Soluble PD-1 to Soluble PD-L1. Soluble PD-1 and soluble PD-L1 refers to proteins with carboxyl-end truncations that remove the transmembrane-spanning regions and are fused to heterologous sequences, specifically the Fc portion of the human immunoglobuling G sequence (Ig) or the hexahistidine epitope tag (SEQ ID NO: 3) (His). All binding studies were performed in an HTRF assay buffer consisting of dPBS supplemented with 0.1% (w/v) bovine serum albumin and 0.05% (v/v) Tween-20. For the PD-1-Ig/PD-L1-His binding assay, inhibitors were pre-incubated with PD-L1-His (10 nM final) for 15 m in 4 μl of assay buffer, followed by addition of PD-1-Ig (20 nM final) in 1 μl of assay buffer and further incubation for 15 m. PD-L1 fusion proteins from either human, cynomologous macaques, mouse, or other species were used. HTRF detection was achieved using europium crypate-labeled anti-Ig monoclonal antibody (1 nM final) and allophycocyanin (APC) labeled anti-His monoclonal antibody (20 nM final). Antibodies were diluted in HTRF detection buffer and 5 μl was dispensed on top of binding reaction. The reaction was allowed to equilibrate for 30 minutes and signal (665 nm/620 nm ratio) was obtained using an EnVision fluorometer. Additional binding assays were established between PD-1-Ig/PD-L2-His (20 and 5 nM, respectively), CD80-His/PD-L1-Ig (100 and 10 nM, respectively) and CD80-His/CTLA4-Ig (10 and 5 nM, respectively). Binding/competition studies between biotinylated Compound No. 71 and human PD-L1-His were performed as follows. Macrocyclic peptide inhibitors were pre-incubated with PD-L1-His (10 nM final) for 60 minutes in 4 μl of assay buffer followed by addition of biotinylated Compound No. 71 (0.5 nM final) in 1 μl of assay buffer. Binding was allowed to equilibrate for 30 minutes followed by addition of europium crypated labeled Streptavidin (2.5 pM final) and APC-labeled anti-His (20 nM final) in 5 μl of HTRF buffer. The reaction was allowed to equilibrate for 30 m and signal (665 nm/620 nm ratio) was obtained using an EnVision fluorometer.
Recombinant Proteins. Carboxyl-truncated human PD-1 (amino acids 25-167) with a C-terminal human Ig epitope tag [hPD-1 (25-167)-3S-IG] and human PD-L1 (amino acids 18-239) with a C-terminal His epitope tag [hPD-L1(19-239)-tobacco vein mottling virus protease cleavage site (TVMV)-His] were expressed in HEK293T cells and purified sequentially by recombinant Protein A affinity chromatography and size exclusion chromatography. Human PD-L2-His (Sino Biologicals), CD80-His (Sino Biologicals), CTLA4-Ig (RnD Systems) were all obtained through commercial sources.
As to `CCCC[C@H]1C(=O)N[C@@H](CN)C(=O)N[C@H](C(=O)NCC(N)=O)CSCC(=O)N[C@@H](Cc2ccc(O)cc2)C(=O)N[C@H](C)C(=O)N[C@@H](CC(=O)O)C(=O)N2CCC[C@H]2C(=O)N[C@@H](Cc2cnc[nH]2)C(=O)N[C@@H](CCC(N)=O)C(=O)N2C[C@H](O)C[C@H]2C(=O)N[C@@H](Cc2c[nH]c3ccccc23)C(=O)N[C@@H](CO)C(=O)N[C@@H](Cc2cccc3ccccc23)c2nnnn2[C@@H](CCCC)C(=O)N1C` [Example 1111], the IC50 came to 2160 nM. Still for that read-out and setting: as for `CCCC[C@H]1C(=O)N(C)CC(=O)N[C@@H](CC(=O)O)C(=O)N[C@@H](C(C)C)C(=O)N(C)[C@@H](Cc2ccccc2)C(=O)NC2(CCCCC2)c2nnnn2CC(=O)N[C@@H](Cc2c[nH]c3ccccc23)C(=O)N[C@@H](Cc2ccc(O)cc2)C(=O)N[C@@H](CC(C)C)C(=O)N[C@H](C(=O)NCC(N)=O)CSCC(=O)N[C@@H](Cc2ccccc2)C(=O)N(C)[C@@H](Cc2ccccc2)C(=O)N1C` [Example 3003] ({CH2CO}-F[NMeF][NMeNle][Sar]DV[NMeF][X2]WYLCG-NH2; thioether N-12), the figure is 590 nM.

Still in this data set, the particulars now being: inhibition of PD-1-Ig binding to PD-L1-TVMV-His; range classes.
For `CCCC[C@H]1C(=O)N[C@@H](CCC(=O)O)C(=O)N[C@H](C(=O)NCC(N)=O)CSCC(=O)N[C@@H](Cc2ccc(O)cc2)C(=O)N(C)[C@@H](C)C(=O)N[C@@H](CC(=O)O)C(=O)N2CCC[C@H]2C(=O)N[C@@H](Cc2cnc[nH]2)C(=O)N[C@@H](CCC(N)=O)C(=O)N2C[C@H](O)C[C@H]2C(=O)N[C@@H](Cc2c[nH]c3ccccc23)C(=O)N[C@@H](CO)C(=O)N[C@@H](Cc2cccc3ccccc23)c2nnnn2[C@@H](CCCC)C(=O)N1C` [Example 1104], the IC50 lay in the range of 10 to 99 nM. On the same count and under the same terms, the same measure for `CCCC[C@H]1C(=O)N(C)[C@@H](CCCC)C(=O)N[C@@H](C)C(=O)N[C@H](C(=O)NCC(N)=O)CSCC(=O)N[C@@H](Cc2ccc(O)cc2)c2nnnn2[C@@H](C)C(=O)N[C@@H](CC(=O)O)C(=O)N2CCC[C@H]2C(=O)N[C@@H](Cc2c[nH]cn2)C(=O)N[C@@H](CCC(N)=O)C(=O)N2C[C@H](O)C[C@H]2C(=O)N[C@@H](Cc2c[nH]c3ccccc23)C(=O)N[C@@H](CO)C(=O)N[C@@H](Cc2csc3ccccc23)C(=O)N1C` [Example 1105] ({CH2CO}-[Tyrψ(CN4)Ala]DPHQ[Hyp]WS[Bta][NMeNle][NMeNle]ACG-NH2; thioether N-13): 100 to 10000 nM. `CCCC[C@H]1C(=O)N(C)[C@@H](CCCC)C(=O)N[C@@H](CCC(=O)O)C(=O)N[C@H](C(=O)NCC(N)=O)CSCC(=O)N[C@@H](Cc2ccc(O)cc2)c2nnnn2[C@@H](C)C(=O)N[C@@H](CC(=O)O)C(=O)N2CCC[C@H]2C(=O)N[C@@H](Cc2c[nH]cn2)C(=O)N[C@@H](CCC(N)=O)C(=O)N2C[C@H](O)C[C@H]2C(=O)N[C@@H](Cc2c[nH]c3ccccc23)C(=O)N[C@@H](CO)C(=O)N[C@@H](Cc2csc3ccccc23)C(=O)N1C` [Example 1106] ({CH2CO}-[Tyrψ(CN4)Ala]DPHQ[Hyp]WS[Bta][NMeNle][NMeNle]ECG-NH2; thioether N-13): the IC50 is 100 to 10000 nM. Still for that read-out and setting: as for `CCCC[C@H]1C(=O)N[C@@H](CN)C(=O)N[C@H](C(=O)NCC(N)=O)CSCC(=O)N[C@@H](Cc2ccc(O)cc2)C(=O)N(C)[C@@H](C)C(=O)N[C@@H](CC(=O)O)C(=O)N2CCC[C@H]2C(=O)N[C@@H](Cc2cnc[nH]2)C(=O)N[C@@H](CCC(N)=O)C(=O)N2C[C@H](O)C[C@H]2C(=O)N[C@@H](Cc2c[nH]c3ccccc23)C(=O)N[C@@H](CO)C(=O)N[C@@H](Cc2cccc3ccccc23)c2nnnn2[C@@H](CCCC)C(=O)N1C` [Example 1107], the figure is 100 to 10000 nM. Still for that read-out and setting: the same measure for `CCCC[C@H]1C(=O)N[C@@H](CN)C(=O)N[C@H](C(=O)NCC(N)=O)CSCC(=O)N[C@@H](Cc2ccc(O)cc2)C(=O)N(C)[C@@H](C)C(=O)N[C@@H](CC(=O)O)C(=O)N2CCC[C@H]2C(=O)N[C@@H](Cc2c[nH]cn2)C(=O)N[C@@H](CCC(=O)O)C(=O)N2C[C@H](O)C[C@H]2C(=O)N[C@@H](Cc2c[nH]c3ccccc23)C(=O)N[C@@H](CO)C(=O)N[C@@H](Cc2cccc3ccccc23)c2nnnn2[C@@H](CCCC)C(=O)N1C` [Example 1108]: 100 to 10000 nM; for `CCCC[C@H]1C(=O)N[C@@H](CN)C(=O)N[C@H](C(=O)NCC(N)=O)CSCC(=O)N[C@@H](Cc2ccc(O)cc2)C(=O)N(C)[C@@H](C)C(=O)N[C@@H](CC(=O)O)C(=O)N2CCC[C@H]2C(=O)N[C@@H](CN)C(=O)N[C@@H](CCC(=O)O)C(=O)N2C[C@H](O)C[C@H]2C(=O)N[C@@H](Cc2c[nH]c3ccccc23)C(=O)N[C@@H](CO)C(=O)N[C@@H](Cc2cccc3ccccc23)c2nnnn2[C@@H](CCCC)C(=O)N1C` [Example 1109]: 10 to 99 nM. Still for that read-out and setting: the same measure for `CCCC[C@H]1C(=O)N(C)[C@@H](CCCC)C(=O)N[C@@H](C)C(=O)N[C@H](C(=O)NCC(=O)O)CSCC(=O)N[C@@H](Cc2ccc(O)cc2)c2nnnn2[C@@H](C)C(=O)N[C@@H](CC(=O)O)C(=O)N2CCC[C@H]2C(=O)N[C@@H](Cc2c[nH]cn2)C(=O)N[C@@H](CCC(N)=O)C(=O)N2C[C@H](O)C[C@H]2C(=O)N[C@@H](Cc2c[nH]c3ccccc23)C(=O)N[C@@H](CO)C(=O)N[C@@H](Cc2csc3ccccc23)C(=O)N1C` [Example 1110] ({CH2CO}-[Tyrψ(CN4)Ala]DPHQ[Hyp]WS[Bta][NMeNle][NMeNle]ACG-OH; thioether N-13): 100 to 10000 nM; for `CCCC[C@H]1C(=O)N[C@@H](C)C(=O)N[C@H](C(=O)NCC(N)=O)CSCC(=O)N[C@@H](Cc2ccc(O)cc2)C(=O)N[C@H](C)C(=O)N[C@@H](CC(=O)O)C(=O)N2CCC[C@H]2C(=O)N[C@@H](Cc2cnc[nH]2)C(=O)N[C@@H](CCC(N)=O)C(=O)N2C[C@H](O)C[C@H]2C(=O)N[C@@H](Cc2c[nH]c3ccccc23)C(=O)N[C@@H](CO)C(=O)N[C@@H](Cc2cccc3ccccc23)c2nnnn2[C@@H](CCCC)C(=O)N1C` [Example 1113]: 100 to 10000 nM.

Tested on in the next data set: not given
Test: not given
Particulars: oral administration, extensive first-pass metabolism in the liver; cited from earlier work.
Take `CCCC1O[C@@H]2C[C@H]3[C@@H]4CCC5=CC(=O)C=C[C@]5(C)[C@H]4[C@@H](O)C[C@]3(C)[C@]2(C(=O)CO)O1` (some centres unmarked) [budesonide]: the bioavailability entry is reported as “about 10%”.
